Laboratory results published in patent US12616750B2, “Combination therapy utilizing DNA alkylating agents and ATR inhibitors” (Merck Patent GmbH, priority 2018, dated 2026).
Values joined by “and” are separate entries in the source; they are usually repeats but may differ in a detail not shown here. Equal entries are not always repeated. Where two headings read alike, the source gives them in different places.

Assays:
[1] = Xenograft experiment, tolerability (body weight); parameters: species or system H2d Rag2 mice; conditions: mouse, in vivo
Description: The tolerability of the anti-cancer treatment was assessed considering the overall condition of the animal as well as body-weight changes of the mice (FIG. 22).

NCI-N87 xenografts = test: Xenograft experiment, therapeutic efficacy; conditions: single agent: αHER2-6 1.0 mg/kg i.v. single dose; ATRi 50 mg/kg per oral once daily 14 d
Description: Female H2d Rag2 mice, 6-8 weeks old, were obtained from Taconic Biosciences, LLC. A xenograft was established by harvesting NCI-N87 cells from cell culture, mixing the cells 1:1 with Matrigel and injecting 2.5×10^6 cells subcutaneously into the flank of the mice. The tumor volume was assessed twice weekly by length measurements in two dimensions using calipers. The volume was calculated following eq. 3 where the length L is the longest tumor length and W is the shortest tumor length.
After an initial tumor growth phase, mice were randomized and assigned to treatment groups comprising 10 animals. The initial tumor volume amounted to approximately 100 mm^3 when treatment started. Vehicle treated mice obtained a solution of 0.5% Methocel, 0.25% Tween-20 in water. […] Mice were weighted twice weekly to assess the body-weight during the treatment period. The criteria to terminate the study for single animals were skin ulcerations, tumor length exceeding 15 mm or tumor exceeding 10% of the body weight. In addition, body weight loss was a criterium for termination if body weight loss exceeded 20% accompanied with a haggard appearance, body weight loss exceeded 20% on three successive days or if body weight loss exceeded 25% of the adjusted body weight.

MDA-MB-453 cells = test: Dose-matrix combination assay (synergy score, Loewe model); assay type: cell-based
Description: (§1) Dose-matrix combination assays were performed as described above, but performed in opague 384-well plates (2k viable cells/well). Compounds were added using Tecan D300e liquid. Protein solutions were supplemented with 0.3% Tween-20 (final) and diluted to 1 μM. All wells were normalized to the maximum amount of DMSO (maximum 0.4%) or Tween-20 added. Read out of luminescence was performed on Envision 2104 Multilabel Reader (Perkin Elmer) and data were evaluated using Genedata Screener® version 14.0.6-Standard (Genedata AG). Luminescence values were normalized to luminescence of non-treated cells and dose-response was fitted using Smart Fit. Synergy scores were calculated using LOEWE synergy model.
(§2) The screening of synergistic drug combinations can be accomplished by performing a dose-matrix assay. Therefore, two drugs are serial diluted and mixed at every dose level, yielding a dose-matrix. The drug combination can be additive if the effects of the combination are identical to the added effects of the single agents. However, the effects of the combination might also be stronger than the activity of the single agents. This scenario is termed synergy, whereas weaker combination effects compared to the single agents are termed antagonism. A dose-matrix assay is depicted schematically in FIG. 2 which illustrates the outcomes of a dose-matrix assay: additivity, antagonism and synergy.

NCI-N87 cells = test: as above; assay type: cell-based
Description: as §1, §2

HCC-1954 cells [2] = test: MNED curve-shift assay; assay type: cell-based; conditions: for MNED (maximum non-efficacious dose): HCC-1954
Excerpt: Therefore a curve-shift assay system was established. In a first step, a dose-response curve (DRC) is obtained by treating a certain cell line with an inhibitor. The maximum non-efficacious dose (MNED) can be derived from this DRC. MNED is the highest dose, that can be added to a certain cell line without affecting the viability. The activity of the ADC is confirmed in a separate experiment. Finally, a combination experiment can be conducted. Therefore, the ADC and ADC plus inhibitor at MNED are added to the cells. The inhibitor is tested in parallel at MNED as a control. Due to the application of inhibitor at MNED, no reduction in cell viability caused by the inhibitor is expected. Three outcomes are possible: 1) The combination of ADC plus inhibitor is equipotent as the ADC only. […] Such a result would be interpreted as depotentiation. […] In this case, the potency of the ADC is potentiated.
Potentiation effects are expressed as dose-reduction indices (DRI), which can be calculated by dividing the IC50-value of ADC by the IC50-value of ADC plus inhibitor according to eq. 1
Curve-shift assays were conducted as follows: The cell number and viability was determined using ViCell™-XR (Beckman Coulter) and seeded in opague 96-well plate (10k viable cells/well). After seeding, the plate was incubated (37° C., 5% C02) in a humid chamber overnight. Compounds were diluted in the appropriate medium, added to the cells and the plate was incubated (37° C., 5% CO2, 6 d) in a humid chamber. After 30 min equilibration at room temperature, CellTiter-Glo reagent (Promega) was added. After the plate was shaken (3 min, 550 rpm, rt) it was incubated (10 min, rt) and luminescence was read on a synergy 4 plate reader (BioTek). Evaluation was performed using GraphPad Prism version 6.05. Therefor luminescence values were normalized to luminescence values of non-treated cells and dose-response was fitted with 4-point logistic fit.
The determination of dose-reduction indices (DRI) in a maximum non-efficacious dose (MNED) curve-shift assay is a 3-step process as depicted exemplarily in FIG. 13. The cytotoxicity of the ADC is confirmed in a cell viability assay in an initial step. […] In the second step. the MNED of the ATRi was determined. […] In order to obtain a full […] for the combination, the starting concentration of the ADC was lowered compared to the experiment in step 1.

HCC-1954 cells [3] = test: Dose-matrix combination assay (synergy score, Loewe model); assay type: cell-based
Description: as §1, with “Read out of luminescence was performed on Envision 2104 Multilabel Reader (Perkin Elmer) and data were evaluated using Genedata Screener® version 14.0.6-Standard (Genedata AG).” left out
as §2
(§3) The screening was conducted by serial diluting the duocarmycin derivative DUBA (10) and the DDR inhibitors. […] DUBA was combined in a dose-matrix assay with hycanthone. The cell viability was measured after 6 d of treatment using the CellTiter-Glo assay kit. The signals of the cell viability assay were normalized to untreated cells and fitted. […] By subtracting the modeled data from the fitted data, an excess matrix was generated. The excess matrix can be considered as a visualization of the differences between model and actual data which also highlights spots of either high synergy or antagonism. The quantification of the combination effects, however, was performed by calculating synergy scores. […] Besides synergy score, the potency of the drugs in monotherapy was obtained from these experiments. […] The potency was obtained from this dose-response curve.
(§4) The scattering of S was determined in a sham control experiment to define a cutoff for classifying a combination as truly synergistic or antagonistic. Thus seven different compounds were combined with itself on four different cell lines and the three-σ confidence interval was calculated around the mean of the measurement. […] For the sake of convenience, the cutoff was set to a value of ±1.
(§5) Synergy scores (S) were obtained from the combination experiments that indicated additivity […] if model and actual response were equal. […] The magnitude of the score determined the extent of the combination effects.

MDA-MB-468 cells = test: as above; assay type: cell-based; conditions: combination with DUBA; MDA-MB-468, 6 d; S ± SD; cutoff ±1
Description: as §1, with “Read out of luminescence was performed on Envision 2104 Multilabel Reader (Perkin Elmer) and data were evaluated using Genedata Screener® version 14.0.6-Standard (Genedata AG).” left out
as §2, §3, §4, §5

HCC-1954 cells [4] = test: Cytotoxicity (cell viability, CellTiter-Glo, 6 d); assay type: cell-based; conditions: Homo sapiens, HCC1954; ATRi alone, HCC-1954; mean ± SD; read-out: Cytotoxicity IC50
Description: as §1, with “Read out of luminescence was performed on Envision 2104 Multilabel Reader (Perkin Elmer) and data were evaluated using Genedata Screener® version 14.0.6-Standard (Genedata AG).” left out
After 6 d of treatment, CellTiter-Glo luminescent assay was performed and the luminescence was read on Envision Reader. The results were analyzed using GeneData Screener as described before.

[5] = evaluated in vivo; cited from earlier work
[6] = combination with ADC αHER2-2, HCC-1954
[7] = combination with DUBA, HCC-1954, 6 d, S ± SD, cutoff ±1

SMILES: C[C@@H]1COCCN1c1cc(-c2ccnn2C)c2ccnc(-c3ccn[nH]3)c2n1 [ATRi 1]
- tolerability (conclusion) [1]: well tolerated
- tumor response (tumor volume) (NCI-N87 xenografts): transient tumor stasis was induced until day 8
- Synergy score S (MDA-MB-453 cells): 13.3±0.3 and 11.4 ± 1.4
- Synergy score S (NCI-N87 cells): 7.1±0.8 and 6.1±0.4
- MNED (maximum non-efficacious dose) (HCC-1954 cells [2]): 40 nM
- effect on cell viability at MNED (HCC-1954 cells [2]; HCC-1954, at 40 nM, inhibitor alone (quality control)): did not reduce cell viability
- Synergy score S (HCC-1954 cells [3]): 12.5±1.7 and 12.0±0.6

SMILES: C[C@@H]1COCCN1c1cc(C2(S(C)(=O)=O)CC2)nc(-c2cccc3[nH]ccc23)n1 [AZ20]
- Synergy score S (HCC-1954 cells [3]; [6]): 5.8±0.4
- Synergy score S (HCC-1954 cells [3]; [7]): 5.1±0.5

SMILES: C=CCn1c(=O)c2cnc(Nc3ccc(N4CCN(C)CC4)cc3)nc2n1-c1cccc(C(C)(C)O)n1 [AZD1775]
- Synergy score S (HCC-1954 cells [3]; [7]): 0.8±0.1
- Synergy score S (MDA-MB-468 cells): 0.1±0.4

SMILES: NC(=O)Nc1cc(-c2cccc(F)c2)sc1C(=O)N[C@H]1CCCNC1 [AZD7762]
- Synergy score S (HCC-1954 cells [3]; [7]): 3.6±0.4
- Synergy score S (MDA-MB-468 cells): 2.6+0.2

SMILES: S=C(NCc1ccc2c(c1)OCO2)N1CCN(c2ncnc3c2oc2ccccc23)CC1 [Amuvatinib]
- Synergy score S (HCC-1954 cells [3]; combination with DUBA, cell line not given (screen on HCC-1954 or MDA-MB-468)): did not yield a synergy score exceeding the cutoff

SMILES: Cc1nc(S(C)(=O)=O)ccc1-c1cc(N2CCOC[C@H]2C)nc2c(-c3ccn[nH]3)nccc12 [BAY73]
- IC50 (HCC-1954 cells [4]): 120 ± 30 nM
- MNED (maximum non-efficacious dose) (HCC-1954 cells [2]): 14 nM
- Synergy score S (HCC-1954 cells [3]; [6]): 14.4±1.1
- Synergy score S (HCC-1954 cells [3]; [7]): 12.4±0.8

SMILES: C[C@@H]1COCCN1c1cc(C2(S(C)(=O)=O)CC2)c2ccnc(-c3ccn[nH]3)c2n1 [BAY286]
- IC50 (HCC-1954 cells [4]): 80 ± 20 nM
- Synergy score S (HCC-1954 cells [3]; [6]): 10.4±0.2
- Synergy score S (HCC-1954 cells [3]; [7]): 9.5±0.8

SMILES: Cc1c(N)nc([C@H](CC(N)=O)NC[C@H](N)C(N)=O)nc1C(=O)N[C@H](C(=O)N[C@H](C)[C@@H](O)[C@H](C)C(=O)NC(C(=O)NCCc1nc(-c2nc(C(=O)NCCCNCCCCN)cs2)cs1)[C@@H](C)O)[C@@H](O[C@@H]1O[C@@H](CO)[C@@H](O)[C@H](O)[C@@H]1O[C@H]1O[C@H](CO)[C@@H](O)[C@H](OC(N)=O)[C@@H]1O)c1cnc[nH]1 (some centres unmarked) [Bleomycin A5]
- Synergy score S (HCC-1954 cells [3]; [7]): 1.6±1.0
- Synergy score S (MDA-MB-468 cells): 0.4+1.0

SMILES: COc1c(O)c2c(c3cc(C(=O)N4CCc5c4c(O)c(OC)c4[nH]c(C(=O)N6CC7CC78C6=CC(=O)c6[nH]cc(C)c68)cc54)[nH]c13)CCN2C(N)=O (centres unmarked) [CC-1065]
- antitumor activity [5]: moderate antitumor activity
- toxicity [5]: hepatic toxicity limited its effectiveness

SMILES: COCC(=O)NC/C=C/c1ccc2ncnc(Nc3ccc(Oc4ccc(C)nc4)c(C)c3)c2c1 [CP724714]
- Synergy score S (HCC-1954 cells [3]; [7]): additive effects
- Synergy score S (MDA-MB-468 cells): additive effects

SMILES: N#C/C(C(=O)c1ccc(Cl)cc1Cl)=C1/NC(=O)c2ccc(Cl)cc2N1 [Ciliobrevin D]
- Synergy score S (HCC-1954 cells [3]; [7]): 1.2+0.6
- Synergy score S (MDA-MB-468 cells): 0.2±0.5
